Data on six compounds can be found in patent US7833543B2, “High viscosity liquid controlled delivery system and medical or surgical device” (Durect Corporation, priority 1995, dated 2010).

Assay type in all cases: physicochemical
The nature of data set [1]: In vitro release of paclitaxel and 5-FU from SAIB formulations into buffer (UV-vis). As to conditions: for cumulative release: after 7 days, 37° C. The protocol:
Solutions of SAIB in the appropriate solvent were prepared with and without the incorporation of an additive. The active was weighed into a test tube and the SAIB/mixture was added and mixed thoroughly to yield a solution or suspension at the desired drug loading. Single drops of the mixture were precipitated into buffer by injection with standard syringes and needles. Samples were maintained at 37° C. in a shaker, sampled periodically, and analyzed by UV-vis spectrophotometry for active release. Paclitaxel and 5-FU samples were analyzed at 232 nm and 266 nm, respectively.

Data set [2] is described as follows: Dissolution of SAIB in propellants. The note with it: propellants 134a and 227, levels of 5 and 10 wt %. The protocol:
SAIB was dissolved in propellants 134a (1,1,1,2-tetrafluoroethane) and 227 (1,1,1,2,3,3,3-heptafluoropropane) at levels of 5 and 10 wt %.

The nature of data set [3]: Dissolution of AZT and ddC SAIB formulations in soft gelatin capsules (USP XXIII Apparatus 2, Method B). The protocol:
Zidovudine (AZT) and dideoxycytodine (ddC) suspensions were prepared by mixing drug with SAIB/solvent solutions with and without a cellulosic coexcipient. Approximately 1 g of each formulation was filled into soft gelatin capsules, which were heat sealed. Dissolution profiles were determined using Apparatus 2, Method B (USP XXIII) at a paddle speed of 50 rpm. Individual gelcaps were placed in separate dissolution vessels, and samples of the buffer in each vessel were obtained at 0.25, 0.5, 1, 2, 3, 6, and 24 hours. The samples were analyzed at 266 and 272 nm on a Perkin Elmer Lambda 20 UV-vis spectrophotometer for AZT and ddC drug content, respectively.

Data set [4] in a line: In vitro release of bupivacaine from precipitated drops into buffer (UV-vis 265 nm). On the procedure: CAPROL 10G4O (decaglycerol tetraoleate) was dissolved in benzyl benzoate at a weight ratio of 50:50. Bupivacaine was dissolved in this mixture at a concentration of 8.75 wt %. Drops weighing approximately 100 mg were precipitated into a test tube containing 40 mL of buffer. Samples of the buffer were removed at specified time points and replaced with fresh buffer. The samples were analyzed by UV-vis spectrophotometry at 265 nm to determine the concentration of bupivacaine in each buffer sample. At 4 hours, less than 7.5 wt % of the bupivacaine in the drop had been released to the buffer. At 48 hours, around 24.0 wt % of the bupivacaine had been released.
The 1,6-hexanediol lactate ε-hydroxycaproic acid produced in Example 1 was dissolved in N-methylpyrrolidone at a weight ratio of 70:30. 10 wt % bupivacaine base was then added to this mixture and dissolved. Drops weighing approximately 100 mg were precipitated into 40 mL buffer. Samples of buffer were removed at specified times and replaced with fresh buffer. Buffer samples were analyzed by UV-vis spectrophotometry at 265 nm to determine the concentration of bupivacaine in each buffer sample. At 4 hours, around 4.1 wt % of the bupivacaine contained in the precipitated drop had been released. At 24 hours, around 8.6 wt % of the bupivacaine had been released.

Data set [5] is described as follows: Aerosol formulation with propellant R-134a: solution formation and sprayability. The protocol: 5.33 g of a 10 wt % solution of bupivacaine in a composition containing 70:30 SAIB/NMP, prepared as described in U.S. Pat. No. 5,747,058, was added to an aerosol container. 14.32 g of propellant R-134a (1,1,1,2-tetrafluoroethane) was added.
5.44 g of a 10 wt % solution of bupivacaine in a composition containing 70:30 SAIB/NMP, prepared as described in U.S. Pat. No. 5,747,058, was added to an aerosol container. 16.55 g. of propellant R-134a (1,1,1,2-tetrafluoroethane) was added.
0.87 g of bupivacaine base was added to an aerosol container. 8.47 g of an SAIB/propylene carbonate solution (70:30) containing 2.5 wt % of a biodegradable polymer (65:35 DLPLG) was added to the container. 0.98 g of ethanol was added to help the drug dissolve. Once dissolved, approximately 16 g of propellant R-134a (1,1,1,2-tetrafluoroethane) was added.

On to `O=c1[nH]cc(F)c(=O)[nH]1` [Example 5-FU, 5-fluorouracil], for which the percent released is listed as 106.0% in data set [1] (10 mg/mL 5-FU in 85:15 SAIB/EtOH + 5 wt % Cremophor EL, after two days) and 80.6% in data set [1] (10 mg/mL 5-FU in 85:15 SAIB/EtOH, no surfactant, after two days). Further, in data set [1] (10 mg/mL 5-FU in 85:15 SAIB/EtOH + Pluronic L-101, after two days), the amount released is given as 102.0%.
For the compound `CC(=O)O[C@H]1C(=O)[C@@]2(C)[C@H]([C@H](OC(=O)c3ccccc3)[C@]3(O)C[C@H](OC(=O)[C@H](O)[C@@H](NC(=O)c4ccccc4)c4ccccc4)C(C)=C1C3(C)C)[C@]1(OC(C)=O)CO[C@@H]1C[C@@H]2O` [paclitaxel], the percent released in data set [1] (25 mg/mL paclitaxel in 85:15 SAIB/EtOH + 5 wt % Cremophor EL, after two days in vitro) turned out to be 77.0%; in data set [1] (25 mg/mL paclitaxel in 85:15 SAIB/EtOH, no surfactant, after two days in vitro), 56.0%. Moreover, the cumulative release came to 106.4% in data set [1] (drug loading 5 mg/mL), 85.9% in data set [1] (drug loading 25 mg/mL) and 33.8% in data set [1] (drug loading 50 mg/mL).
With sucrose acetate isobutyrate [SAIB], the “appearance on dissolution in propellants” value in data set [2] was “Clear solutions were formed”.
For `Nc1ccn([C@H]2CC[C@@H](CO)O2)c(=O)n1` [ddC, dideoxycytodine], the cumulative percent released in data set [3] (0.225 wt % ddC in 70:30 SAIB/Migylol 810, 2 hours) worked out at 74.2%; in data set [3] (0.225 wt % ddC in 85:15 SAIB/EtOH, 2 hours), 59.5%. The amount released was found to be 39.4% in data set [3] (0.225 wt % ddC in 85:15 SAIB/EtOH + 0.5 wt % CAB, 2 hours) and 13.5% in data set [3] (0.225 wt % ddC in 85:15 SAIB/EtOH + 1.0 wt % CAB, 2 hours).
In the case of `CCCCN1CCCCC1C(=O)Nc1c(C)cccc1C` (stereo not shown) [bupivacaine], the “bupivacaine contained in the precipitated drop released” value in data set [4] (1,6-hexanediol lactate ε-hydroxycaproic acid (Example 1)/N-methylpyrrolidone 70:30, 10 wt % bupivacaine base, 4 hours) is recorded as “around 4.1 wt %”. Also, the bupivacaine released entry in data set [4] (1,6-hexanediol lactate ε-hydroxycaproic acid (Example 1)/N-methylpyrrolidone 70:30, 10 wt % bupivacaine base, 24 hours) is reported as “around 8.6 wt %”; in data set [4] (CAPROL 10G4O (decaglycerol tetraoleate)/benzyl benzoate 50:50, 8.75 wt % bupivacaine, 48 hours) it was “around 24.0 wt %”. For the same compound, the “bupivacaine in the drop released to the buffer” value in data set [4] (CAPROL 10G4O (decaglycerol tetraoleate)/benzyl benzoate 50:50, 8.75 wt % bupivacaine, 4 hours) is recorded as “less than 7.5 wt %”. Further, the “sprayability of aerosol mixture” value in data set [5] (0.87 g bupivacaine base, 8.47 g SAIB/propylene carbonate (70:30) with 2.5 wt % 65:35 DLPLG, 0.98 g ethanol, approx. 16 g R-134a) is reported as “easily sprayed with no bubbling or foaming”; in data set [5] (5.33 g of 10 wt % bupivacaine in 70:30 SAIB/NMP + 14.32 g propellant R-134a), “easily sprayed with no bubbling or foaming”; in data set [5] (5.44 g of 10 wt % bupivacaine in 70:30 SAIB/NMP + 16.55 g propellant R-134a), “easily sprayed with no bubbling or foaming”.
`Cc1cn([C@H]2C[C@H](N=[N+]=[N-])[C@@H](CO)O2)c(=O)[nH]c1=O` [AZT, Zidovudine]: the cumulative percent released in data set [3] (11.1 wt % AZT in 70:30 SAIB/Migylol 810, 2 hours) was 104.1%; in data set [3] (11.1 wt % AZT in 85:15 SAIB/EtOH, 2 hours), 71.2%; in data set [3] (active loading doubled to 22.2 wt % in 85:15 SAIB/EtOH), 93.8%. Further, the amount released in data set [3] (11.1 wt % AZT in 85:15 SAIB/EtOH + 0.02 wt % CAB, 2 hours) came to 25.6%; in data set [3] (11.1 wt % AZT in 85:15 SAIB/EtOH + 0.2 wt % CAB, 2 hours), 7.6%.
